What all share (assay): cross-linking in cells, immunoblot
Holding throughout (type): cell-based
Conditions in all cases: covalent; living yeast, toxic concentrations

One assay addresses T1, Mpd1 (Saccharomyces cerevisiae, UniProt Q12404).
T1 sequence (Q12404 22-318): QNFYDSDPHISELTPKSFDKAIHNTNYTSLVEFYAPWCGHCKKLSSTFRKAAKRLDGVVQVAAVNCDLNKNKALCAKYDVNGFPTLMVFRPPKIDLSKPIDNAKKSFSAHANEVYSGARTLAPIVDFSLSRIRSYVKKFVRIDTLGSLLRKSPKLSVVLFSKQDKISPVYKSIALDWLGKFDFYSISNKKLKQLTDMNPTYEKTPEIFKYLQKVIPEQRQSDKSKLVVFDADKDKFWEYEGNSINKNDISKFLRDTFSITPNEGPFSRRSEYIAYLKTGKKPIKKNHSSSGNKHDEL

The target in another assay is T2, Pdi1 (Saccharomyces cerevisiae, UniProt P17967).
T2 sequence (P17967 29-522): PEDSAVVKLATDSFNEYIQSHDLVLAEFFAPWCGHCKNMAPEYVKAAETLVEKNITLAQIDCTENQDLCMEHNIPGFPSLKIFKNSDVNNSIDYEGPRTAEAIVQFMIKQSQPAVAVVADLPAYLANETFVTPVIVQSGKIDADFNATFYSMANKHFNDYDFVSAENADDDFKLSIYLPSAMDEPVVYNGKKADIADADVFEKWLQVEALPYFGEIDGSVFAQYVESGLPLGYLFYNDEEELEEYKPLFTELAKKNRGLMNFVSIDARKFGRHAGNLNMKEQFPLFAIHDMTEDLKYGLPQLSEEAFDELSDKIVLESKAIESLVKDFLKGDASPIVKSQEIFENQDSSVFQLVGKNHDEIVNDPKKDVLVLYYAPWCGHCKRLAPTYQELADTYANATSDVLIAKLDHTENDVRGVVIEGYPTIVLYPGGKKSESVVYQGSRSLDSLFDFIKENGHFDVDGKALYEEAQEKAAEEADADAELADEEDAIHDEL

For another assay, the target named is T3, Mpd2 (Saccharomyces cerevisiae, UniProt Q99316).
T3 sequence (Q99316 23-277): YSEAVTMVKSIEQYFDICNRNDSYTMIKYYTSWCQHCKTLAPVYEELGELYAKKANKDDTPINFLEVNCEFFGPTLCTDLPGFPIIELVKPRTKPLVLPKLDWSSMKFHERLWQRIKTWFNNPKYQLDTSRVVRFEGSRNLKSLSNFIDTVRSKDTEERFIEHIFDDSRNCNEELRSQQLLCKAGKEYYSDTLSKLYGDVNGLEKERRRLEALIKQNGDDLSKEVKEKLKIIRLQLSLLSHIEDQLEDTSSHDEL

A further assay deals with T4, Eug1 (Saccharomyces cerevisiae, UniProt P32474).
T4 sequence (P32474 30-517): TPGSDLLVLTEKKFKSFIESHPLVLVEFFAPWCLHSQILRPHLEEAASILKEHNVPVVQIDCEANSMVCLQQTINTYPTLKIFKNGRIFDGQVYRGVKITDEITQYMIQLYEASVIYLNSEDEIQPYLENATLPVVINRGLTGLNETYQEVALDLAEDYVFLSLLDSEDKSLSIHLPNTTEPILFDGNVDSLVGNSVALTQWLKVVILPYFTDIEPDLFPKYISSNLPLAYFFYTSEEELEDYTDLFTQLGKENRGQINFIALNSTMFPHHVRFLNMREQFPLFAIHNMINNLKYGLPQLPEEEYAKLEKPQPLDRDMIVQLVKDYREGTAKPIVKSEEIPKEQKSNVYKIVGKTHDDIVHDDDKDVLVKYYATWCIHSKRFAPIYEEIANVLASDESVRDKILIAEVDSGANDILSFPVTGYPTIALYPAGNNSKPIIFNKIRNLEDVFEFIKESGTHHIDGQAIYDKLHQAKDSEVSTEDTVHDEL

The structures appear in SMILES notation.

This note sets out measurements from article PMC8860869 (Chemical research in toxicology, 2022).

In the case of `C1OC1C1CO1` (stereo not shown) [1,2,3,4-diepoxybutane], the “cross-linking in cells, immunoblot” value on Mpd1, on Pdi1, at Mpd2 and on Eug1 was “Each of these proteins also underwent protein cross-linking in cells treated with toxic concentrations” each time.
